The source of these data is PubChem BioAssay AID248 (DTP/NCI, 2004).

The test system of this assay is L1210 leukemia ip in BDF1 mice, survival T/C. In words: NCI In Vivo Anticancer Drug Screen. Data for tumor model L1210 Leukemia (intraperitoneal) in B6D2F1 (BDF1) mice. The conditions noted are these: endpoint: mean survival time, higher = longer survival. The procedure, abridged:
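Tumor was transplanted into mice, which were then dosed with test compound or vehicle alone. Survival was recorded for each group, and the treated figure was expressed relative to the control figure.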

Where [1] appears, read: dose: 100.0 mg/kg/injection, schedule: Q04DX003 (ip), vehicle: Klucel (hydroxypropylcellulose) (HPC).
The mark [2] stands for this setting: dose: 200.0 mg/kg/injection, schedule: Q04DX003 (ip), vehicle: Klucel (hydroxypropylcellulose) (HPC).
[3] abbreviates: dose: 400.0 mg/kg/injection, schedule: Q04DX003 (ip), vehicle: Klucel (hydroxypropylcellulose) (HPC).

Inconclusive results and toxic doses are left out.

For `COC(=O)C#CBr`, the T/C is 108 % of control (dose: 3.13 mg/kg/injection, schedule: Q01DX009 (ip), vehicle: other) and 97 % of control (dose: 6.25 mg/kg/injection, schedule: Q01DX009 (ip), vehicle: other).

Turning to `O=C(OCCN1CCCCCCCC1)C(c1ccccc1)c1ccccc1`, the T/C reads like this: (dose: 100.0 mg/kg/injection, schedule: Q01DX001 (ip), vehicle: other) 101 % of control; (dose: 200.0 mg/kg/injection, schedule: Q01DX001 (ip), vehicle: other) 90 % of control; (dose: 400.0 mg/kg/injection, schedule: Q01DX001 (ip), vehicle: other) 110 % of control.

For the molecule `Cn1cnc2c(C#N)c(C#N)nn2c1=O`, the T/C (dose: 50.0 mg/kg/injection, schedule: Q01DX001 (ip), vehicle: carboxymethylcellulose (CMC)) is 93 % of control; the T/C (dose: 100.0 mg/kg/injection, schedule: Q01DX001 (ip), vehicle: carboxymethylcellulose (CMC)) was 90 % of control; the T/C (dose: 200.0 mg/kg/injection, schedule: Q01DX001 (ip), vehicle: carboxymethylcellulose (CMC)) was 93 % of control.

Consider `COC1=CC2C3=C(C(NC=O)CCc4cc(OC)c(OC)c(OC)c43)C2C1=O` (stereo not given), for which the T/C reads like this: under setting [1], 95 % of control; under setting [2], 100 % of control; under setting [3], 102 % of control.

Take `O=C(Nc1cc([N+](=O)[O-])ccc1F)N(Cc1ccccc1)c1ccccc1`: the T/C under setting [1] was 97 % of control, the T/C under setting [2] is 92 % of control and the T/C under setting [3] was 87 % of control.

For the molecule `CCOC(=O)N1C(=O)NC(=O)C1c1ccc(Cl)cc1` (stereo not given), the T/C runs as follows: (dose: 50.0 mg/kg/injection, schedule: Q01DX001 (ip), vehicle: saline) 96 % of control; (dose: 100.0 mg/kg/injection, schedule: Q01DX001 (ip), vehicle: saline) 112 % of control; (dose: 200.0 mg/kg/injection, schedule: Q01DX001 (ip), vehicle: saline) 100 % of control.

With `C[N+]1(N)CCCCCC1`, the T/C runs as follows: (dose: 100.0 mg/kg/injection, schedule: Q04DX002 (ip), vehicle: saline) 94 % of control; (dose: 200.0 mg/kg/injection, schedule: Q04DX002 (ip), vehicle: saline) 113 % of control; (dose: 400.0 mg/kg/injection, schedule: Q04DX002 (ip), vehicle: saline) 87 % of control.
